In patent publication US9636410B2, “Cationic oil-in-water emulsions” (priority 2011, dated 2017):
One block for each compound: values may come before it.

Key:
[1] = Solubility of fatty acids in squalene; conditions: for solubility: oil or lipid, thermodynamic from solid
physchem = conditions: oil or lipid, thermodynamic from solid
[2] = 4 °C, solubility in squalene, 4° C. (overnight), solution at the fatty acid's top concentration left at 4° C. overnight
[3] = 60 °C, solubility in squalene at 40 mg/mL, mixed with squalene at 60° C.
[4] = 60 °C, solubility in squalene at 5 mg/mL, mixed with squalene at 60° C.
[5] = 60 °C, solubility in squalene at 10 mg/mL, mixed with squalene at 60° C.
[6] = 60 °C, solubility in squalene at 20 mg/mL, mixed with squalene at 60° C.

Compound: CCCCCCCC/C=C\CCCCCCCC(=O)O [Oleic Acid (18:1)-cis, Oleic Acid]
solubility in squalene ([1]; 40 mg/ml): soluble in squalene | solubility in squalene ([1]; 4° C. overnight): remained soluble in squalene | solubility (physchem; [2]): > 40 mg/mL | solubility (physchem; [3]): > 40 mg/mL

Compound: CCCCCCCCCCCCCCCCCCCCCC(=O)O [Behenic Acid (22:0), Behenic Acid]
solubility (physchem; [2]): < 40 mg/mL | solubility (physchem; [4]): < 5 mg/mL | solubility (physchem; [5]): < 10 mg/mL | solubility (physchem; [6]): < 20 mg/mL | solubility (physchem; [3]): < 40 mg/mL

Compound: CCCCCCCCCCC(=O)O [Undecanoic Acid]
solubility (physchem; [2]): > 40 mg/mL | solubility (physchem; [3]): > 40 mg/mL

Compound: CCCCCCCCCCCCCCCCCCCCCCC(=O)O [Tricosanoic Acid]
solubility (physchem; [2]): < 40 mg/mL | solubility (physchem; [4]): < 5 mg/mL | solubility (physchem; [5]): < 10 mg/mL | solubility (physchem; [6]): < 20 mg/mL | solubility (physchem; [3]): < 40 mg/mL

Compound: CCCCCCCCCCCCCCCCCCC(=O)O [Nonadecanoic Acid]
solubility (physchem; [2]): < 40 mg/mL | solubility (physchem; [4]): < 5 mg/mL | solubility (physchem; [5]): < 10 mg/mL | solubility (physchem; [6]): < 20 mg/mL | solubility (physchem; [3]): < 40 mg/mL

Compound: CCCCCCCCCCCCCCCCCCCC(=O)O [Arachidic Acid (20:0), Arachidic Acid]
solubility (physchem; [2]): < 40 mg/mL | solubility (physchem; [4]): > 5 mg/mL | solubility (physchem; [5]): < 10 mg/mL | solubility (physchem; [6]): < 20 mg/mL | solubility (physchem; [3]): < 40 mg/mL

Compound: CCCCCCCC/C=C\CCCCCCCCCCCCCC(=O)O [Nervonic Acid (24:1), Nervonic Acid]
solubility (physchem; [2]): < 40 mg/mL | solubility (physchem; [3]): > 40 mg/mL

Compound: CCCCCC/C=C\CCCCCCCC(=O)O [Palmitoleic Acid (16:1), Palmitoleic Acid]
solubility (physchem; [2]): > 40 mg/mL | solubility (physchem; [3]): > 40 mg/mL

Compound: CC/C=C\C/C=C\C/C=C\CCCCCCCC(=O)O [Linolenic Acid (18:3), Linolenic Acid]
solubility (physchem; [2]): > 40 mg/mL | solubility (physchem; [3]): > 40 mg/mL

Compound: CCCCCCCC/C=C/CCCCCCCC(=O)O [Elaidic Acid (18:1)-trans, Elaidic Acid]
solubility (physchem; [2]): < 40 mg/mL | solubility (physchem; [3]): > 40 mg/mL

solubility (physchem; 4 °C): < 40 mg/mL | solubility (physchem; 60 °C): > 40 mg/mL
Compound: CCCCCCCCCCCC(=O)O [Lauric acid (12:0), Lauric acid]

Compound: CCCCCCCCCCCCCCCCCCCCCCCC(=O)O [Lignoceric Acid (24:0), Lignoceric Acid]
solubility (physchem; [2]): < 40 mg/mL | solubility (physchem; [4]): < 5 mg/mL | solubility (physchem; [5]): < 10 mg/mL | solubility (physchem; [6]): < 20 mg/mL | solubility (physchem; [3]): < 40 mg/mL

Compound: CCCCCCCCCCCCC(=O)O [Tridecanoic Acid]
solubility (physchem; [2]): < 40 mg/mL | solubility (physchem; [3]): > 40 mg/mL

Compound: CCCCCCCCCCCCCCCCC(=O)O [Heptadecanoic Acid]
solubility (physchem; [2]): < 40 mg/mL | solubility (physchem; [4]): > 5 mg/mL | solubility (physchem; [5]): < 10 mg/mL | solubility (physchem; [6]): < 20 mg/mL | solubility (physchem; [3]): < 40 mg/mL

solubility (physchem; 4 °C): > 40 mg/mL | solubility (physchem; 60 °C): > 40 mg/mL
Compound: CCCCC/C=C\C/C=C\CCCCCCCC(=O)O [Linoleic Acid (18:2), Linoleic Acid]

Compound: CCCCCCCCCCCCCCCCCCCCC(=O)O [Heneicosanoic Acid]
solubility (physchem; [2]): < 40 mg/mL | solubility (physchem; [4]): < 5 mg/mL | solubility (physchem; [5]): < 10 mg/mL | solubility (physchem; [6]): < 20 mg/mL | solubility (physchem; [3]): < 40 mg/mL

Compound: CCCCCCCCCCC/C=C\CCCCC(=O)O [Petroselinic Acid (18:1), Petroselinic Acid]
solubility ([1]; 4 °C): > 40 mg/mL | solubility ([1]; 60 °C): > 40 mg/mL

solubility (physchem; 4 °C): > 40 mg/mL | solubility (physchem; 60 °C): > 40 mg/mL
Compound: CCCCCCCC/C=C\CCCCCCCCCCCC(=O)O [Erucic Acid (22:1), Erucic Acid]

Compound: CCCCCCCCCCCCCCC(=O)O [Pentadecanoic Acid]
solubility (physchem; [2]): < 40 mg/mL | solubility (physchem; [3]): > 40 mg/mL

Compound: CCCCCCCCCCCCCC(=O)O [Myristic Acid (14:0), Myristic Acid]
solubility (physchem; [2]): < 40 mg/mL | solubility (physchem; [6]): > 20 mg/mL | solubility (physchem; [3]): < 40 mg/mL

Compound: CC/C=C\C/C=C\C/C=C\C/C=C\C/C=C\C/C=C\CCC(=O)O [Docosahexaenoic Acid (22:6), Docosahexaenoic Acid]
solubility (physchem; [2]): > 40 mg/mL | solubility (physchem; [3]): > 40 mg/mL
